Measured values reported in patent publication US20110160252A1, “PHARMACEUTICAL COMPOSITIONS FOR TREATMENT OR PREVENTION OF HBV INFECTION” (priority 2008, published 2011).
Like-named read-outs stand apart in the source and are kept apart here.

Columns and labels:
[1] = system: genotype C HBV (L180M+S202G+M204V; ETV-resistant strain); assay: Virus titer in chimeric mice having human liver infected with ETV-resistant genotype C HBV (Example 5); assay type: in vivo, Hepatitis B virus; conditions: formula (III) 5 mg/kg iv daily, PEG-IFN 30 μg/kg sc, ETV 0.02 mg/kg oral daily (FIG. 5)
Text: (§1) Next, serum HBV was purified by the same method as described in Example 1, and HBV was quantified by measuring HBV-DNA using real-time PCR method. The sequences of primers HBSF2: 5′-CTTCATCCTGCTGCTATGCCT-3′[nt 406-426] (SEQ ID NO: 4) and HBSR2: 5′-AAAGCCCAGGATGATGGGAT-3′[nt 646-627] (SEQ ID NO: 5), and the sequence of TaqMan probe HBSP2 (nt 461-488) (5′-ATGTTGCCCGTTTGTCCTCTAATTCCA-3′ (SEQ ID NO: 6)) were the same as those described in the reference (Abe A, Inoue K, Tanaka T, Kato J, Kajiyama N, Kawaguchi R, Tanaka S, et al. Quantitation of hepatitis B virus genomic DNA by real-time detection PCR. J Clin Microbiol (1999) 37: 2899-2903).
(§2) The same test as described in Example 3 was carried out using chimeric mice (purchased from PhoenixBio Co., Ltd.) having human liver infected with genotype C HBV (L180M+S202G+M204V; ETV-resistant strain). The compound represented by formula (III) was administered at 5 mg/kg (intravenous injection every day), while PEG-IFN was administered at 30 μg/kg (subcutaneous injection). Entecavir (ETV) was administered at 0.02 mg/kg (oral administration every day).

[2] = system: HBV (genotype C_AT; wild-type strain); assay: Virus titer in chimeric mice having human liver infected with genotype C_AT HBV (Example 4); assay type: in vivo, Hepatitis B virus; conditions: second week, formula (III) 5 mg/kg iv daily, PEG-IFN 30 μg/kg sc, ETV 0.02 mg/kg oral daily (FIG. 4)
Text: as §1
as §2, with “with” for “with genotype C”, “(genotype C_AT; wild-type” for “(L180M+S202G+M204V; ETV-resistant”

[3] = system: HBV strain B, L180M+M204V+T184L (Entecavir-resistant strain); assay: HBV propagation suppression in Huh-7 cells, strain B (Entecavir-resistant); assay type: cell-based; conditions: Hepatitis B virus, Huh-7, read-out: 50% propagation suppression
Description: (§3) FIG. 1B is a graph showing the effect of an agent on Huh-7 cells infected with various HBV strains. • A: highly Lamivudine-resistant strain, 50% propagation suppression=3.4 μM; • B: Entecavir-resistant strain, 50% propagation suppression=3.7 μM; • C: Lamivudine-resistant strain, 50% propagation suppression=3.6 μM; • Wild: wild-type strain, 50% propagation suppression=3.2
(§4) On the day before HBV infection, about 100,000 Huh-7 cells were plated in 12-well plates (FALCON, 353043) using culture medium DMEM (SIGMA, D6429).
(§5) On the day of infection, 50 μl of a homogenous mixture of 0.5 μg of HBV-DNA (described in “Sugiyama M, et al. HEPATOLOGY, Vol. 44: 915-924, 2006”), 1.5 μl of FUGENE6 (Roche Diagnostics; 11 814 443 001), 5 μl of SEAP, and 43 μl of OPTIMEM (Invitrogen; 31985) was added to the Huh-7 cells in each well. […]
(§6) HBV was quantified by measuring HBV-DNA using real-time PCR (Device used: Applied Biosystems, 4318157). […]
(§7) (SEQ ID NO: 2); and HBVSP2 has the sequence of: FAM-[…]-TAMRA (SEQ ID NO: 3)). […] HBV-DNA copy numbers were determined from the obtained fluorescent signals.
(§8) Furthermore, the effect of suppressing HBV propagation was assessed by the same method using Lamivudine- and Entecavir-resistant strains (A, L180M+M204V; B, L180M+M204V+T184L; C, M204V (YVDD)) as well as wild-type HBV strain (Wild).

[4] = system: HBV strain A, L180M+M204V (highly Lamivudine-resistant strain); assay: HBV propagation suppression in Huh-7 cells, strain A (highly Lamivudine-resistant); assay type: cell-based; conditions: Hepatitis B virus, Huh-7, read-out: 50% propagation suppression
Description: as §3, §4, §5, §6, §7, §8

[5] = system: HBV strain C, M204V (YVDD) (Lamivudine-resistant strain); assay: HBV propagation suppression in Huh-7 cells, strain C (Lamivudine-resistant); assay type: cell-based; conditions: Hepatitis B virus, Huh-7, read-out: 50% propagation suppression
Description: as §3, §4, §5, §6, §7, §8

[6] = system: HBV (genotype C_AT; wild-type strain); assay: Anti-HBV effect on HBV-infected Huh-7 cells, HBV-DNA in supernatant by real-time PCR (wild-type strain); assay type: cell-based; conditions: Hepatitis B virus
Description: The present inventors assessed the anti-HBV effect of the compound represented by formula (III) on Huh-7 cells infected with HBV (genotype C_AT; wild-type strain).
as §4
On the day of infection, 50 μl of a homogenous mixture of 0.5 μg of HBV-DNA (described in “Sugiyama M, et al. HEPATOLOGY, Vol. 44: 915-924, 2006”), 1.5 μl of FUGENE6 (Roche Diagnostics; 11 814 443 001), 5 μl of SEAP, and 43 μl of OPTIMEM (Invitrogen; 31985) was added to the Huh-7 cells in each well. Then, the compound represented by formula (III) was added at a final concentration of 0, 3, 10, or 30 μM.
The cells were cultured at 37° C. under 5% CO2 for three days, and then culture supernatant was collected from each well. The supernatant was treated with deoxyribonuclease (DNase) to remove free DNA. […]
as §6, §7

SMILES | viral decrease [1] | mean decrease of virus titer [2] | IC50 [3] | IC50 [4] | IC50 [5] | IC50 ([6]; 72 h, Huh-7 cells, genotype C_AT wild-type HBV, three days culture, HBV-DNA in supernatant (FIG. 1A), read-out: 50%-inhibition concentration (IC50)) | IC50 ([6]; Huh-7, read-out: 50% propagation suppression)
C=C1[C@H](CO)[C@@H](O)C[C@@H]1n1cnc2c(=O)[nH]c(N)nc21 [ETV, Entecavir] | 0.3 Log | 1.4 Log | – | – | – | – | –
CC#CCOc1ccc(C[C@H](NC(=O)[C@@H](/C=C/CCCCCCC(=O)CCCCCCC)[C@@](O)(CC(=O)O)C(=O)O)C(=O)O)cc1 [compound represented by formula (III)] | – | – | 3.7 µM | 3.4 µM | 3.6 µM | ~3 µM | 3.2 µM
